In ChEMBL document CHEMBL3124815, “Discovery of a selective kinase inhibitor (TAK-632) targeting pan-RAF inhibition: design, synthesis, and biological evaluation of C-7-substituted 1,3-benzothiazole derivatives” (J Med Chem, 2013):
Converted amounts (≈) assume the structure as drawn.

Columns and labels:
[1] = molecular target: T1, Serine/threonine-protein kinase B-raf (Homo sapiens, UniProt P15056, V600E); test: Inhibition of BRAF V600E mutant in human HT-29 cells assessed as phosphorylation of MEK; assay type: cell-based
Target sequence in this assay (P15056 2-766 V600E limits assumed): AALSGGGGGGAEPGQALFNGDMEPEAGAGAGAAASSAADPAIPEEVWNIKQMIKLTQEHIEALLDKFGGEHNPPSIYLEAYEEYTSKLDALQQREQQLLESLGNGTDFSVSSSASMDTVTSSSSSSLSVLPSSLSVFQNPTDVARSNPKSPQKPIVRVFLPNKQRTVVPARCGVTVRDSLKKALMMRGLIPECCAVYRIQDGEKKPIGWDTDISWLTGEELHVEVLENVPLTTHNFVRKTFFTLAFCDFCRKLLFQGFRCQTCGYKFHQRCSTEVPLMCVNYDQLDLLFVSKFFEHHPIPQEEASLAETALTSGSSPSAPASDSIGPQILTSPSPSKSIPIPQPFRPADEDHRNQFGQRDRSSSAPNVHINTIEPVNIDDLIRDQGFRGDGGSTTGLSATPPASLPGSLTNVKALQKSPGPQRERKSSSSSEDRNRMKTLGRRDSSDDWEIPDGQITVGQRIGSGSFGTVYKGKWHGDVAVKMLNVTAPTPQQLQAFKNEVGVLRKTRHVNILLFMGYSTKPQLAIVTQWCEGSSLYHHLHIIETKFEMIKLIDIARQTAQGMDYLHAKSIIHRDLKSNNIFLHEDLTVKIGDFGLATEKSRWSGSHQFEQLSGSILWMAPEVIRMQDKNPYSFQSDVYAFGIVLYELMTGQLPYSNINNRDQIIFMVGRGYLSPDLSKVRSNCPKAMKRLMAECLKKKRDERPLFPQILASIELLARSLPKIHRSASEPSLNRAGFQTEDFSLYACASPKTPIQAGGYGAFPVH

[2] = tested on: Rattus norvegicus; test: Toxicity in F344 nude rat xenografted with human HMVII cells expressing NRAS Q61K/BRAF G469V mutant assessed as body weight change at 24.1 mg/kg, po bid for 14 days; assay type: organism-based; set-up: dose 24.1 mg/kg, route oral; conditions: in vivo, 336 h
[3] = Antitumor activity against human HMVII cells expressing NRAS Q61K/BRAF G469V mutant xenografted in F344 nude rat assessed as reduction in tumor size at 9.7 mg/kg, po bid for 14 days relative to control; assay type: functional, HMV-2
[4] = tested on: Rattus norvegicus; test: Toxicity in F344 nude rat xenografted with human A375 cells expressing BRAF V600E mutant assessed as body weight change at 24.1 mg/kg, po bid for 14 days relative to control; assay type: organism-based, A-375; set-up: dose 24.1 mg/kg, route oral; conditions: in vivo, 336 h
[5] = tested on: Rattus norvegicus; test: Toxicity in F344 nude rat xenografted with human A375 cells expressing BRAF V600E mutant assessed as body weight change at 3.9 mg/kg, po bid for 14 days relative to control; assay type: organism-based, A-375; set-up: dose 3.9 mg/kg, route oral; conditions: in vivo, 336 h
[6] = tested on: A-375; test: Antitumor activity against human A375 cells expressing BRAF V600E mutant xenografted in F344 nude rat assessed as reduction in tumor size at 24.1 mg/kg, po bid for 14 days relative to control; assay type: functional
[7] = tested on: A-375; test: Antitumor activity against human A375 cells expressing BRAF V600E mutant xenografted in F344 nude rat assessed as reduction in tumor size at 1.9 mg/kg, po bid for 14 days relative to control; assay type: functional
[8] = Oral bioavailability in dog at 10 mg/kg; assay type: ADME, organism-based, Canis lupus familiaris; conditions: in vivo
[9] = Oral bioavailability in rat at 25 mg/kg; assay type: ADME, organism-based; conditions: in vivo
[10] = AUC (0 to 24 hrs) in dog at 10 mg/kg, po; assay type: ADME, organism-based, Canis lupus familiaris; set-up: time < 24 hr, dose 10 mg/kg, route oral; conditions: plasma
[11] = AUC (0 to 24 hrs) in rat at 25 mg/kg, po; assay type: ADME, organism-based; set-up: time < 24 hr, dose 25 mg/kg, route oral; conditions: plasma
[12] = Mean residence time in dog at 1 mg/kg, iv; assay type: ADME, organism-based, Canis lupus familiaris; set-up: dose 1 mg/kg, route intravenous; conditions: in vivo
[13] = Mean residence time in rat at 25 mg/kg, po; assay type: ADME, organism-based; set-up: dose 25 mg/kg, route oral; conditions: in vivo
[14] = Solubility of the compound in form of solid dispersion in phosphate buffer at pH 6.8; assay type: physicochemical
[15] = Solubility of the compound in phosphate buffer at pH 6.8; assay type: physicochemical
[16] = tested on: A-375; test: Antiproliferative activity against human A375 cells assessed as growth inhibition after 72 hrs by chemi-luminescence cell viability assay; assay type: functional; conditions: A-375, 72 h
[17] = Inhibition of NRASQ61k/BRAFG469V-mutant in human HMVII cells assessed as phosphorylation of ERK after 2 hrs by Western blotting analysis; assay type: cell-based
[18] = Inhibition of NRASQ61k/BRAFG469V-mutant in human HMVII cells assessed as phosphorylation of MEK after 2 hrs by Western blotting analysis; assay type: cell-based
[19] = molecular target: T1, Serine/threonine-protein kinase B-raf; test: Inhibition of BRAF V600E mutant in human A375 cells assessed as phosphorylation of ERK after 2 hrs by Western blotting analysis; assay type: cell-based, A-375
Target sequence in this assay (P15056 2-766 V600E limits assumed): as above

[20] = molecular target: T1, Serine/threonine-protein kinase B-raf; test: Inhibition of BRAF V600E mutant in human A375 cells assessed as phosphorylation of MEK after 2 hrs by Western blotting analysis; assay type: cell-based, A-375
Target sequence in this assay (P15056 2-766 V600E limits assumed): as above

[21] = molecular target: T2, RAF proto-oncogene serine/threonine-protein kinase (Homo sapiens, UniProt P04049); test: Inhibition of CRAF (unknown origin) compound preincubated for 1 hr in presence of 1000 uM ATP
T2 sequence (P04049 whole entry): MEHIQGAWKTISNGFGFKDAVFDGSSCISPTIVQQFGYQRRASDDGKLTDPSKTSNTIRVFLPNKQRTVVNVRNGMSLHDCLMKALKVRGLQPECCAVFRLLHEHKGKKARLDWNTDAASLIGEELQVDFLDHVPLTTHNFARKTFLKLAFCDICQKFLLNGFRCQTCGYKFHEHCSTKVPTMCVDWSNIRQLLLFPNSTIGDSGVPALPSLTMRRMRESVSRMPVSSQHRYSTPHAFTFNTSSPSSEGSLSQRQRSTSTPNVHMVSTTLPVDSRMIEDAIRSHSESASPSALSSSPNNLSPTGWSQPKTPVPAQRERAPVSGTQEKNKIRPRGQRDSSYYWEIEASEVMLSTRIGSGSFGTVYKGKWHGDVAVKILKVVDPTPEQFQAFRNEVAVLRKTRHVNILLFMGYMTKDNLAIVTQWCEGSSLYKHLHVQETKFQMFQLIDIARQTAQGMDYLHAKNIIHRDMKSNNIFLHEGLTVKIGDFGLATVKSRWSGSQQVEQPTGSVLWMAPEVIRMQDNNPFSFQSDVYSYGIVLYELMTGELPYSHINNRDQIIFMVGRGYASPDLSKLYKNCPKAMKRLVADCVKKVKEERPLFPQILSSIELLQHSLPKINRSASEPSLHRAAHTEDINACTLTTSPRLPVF

[22] = molecular target: T1, Serine/threonine-protein kinase B-raf; test: Inhibition of BRAF V600E mutant (unknown origin) compound preincubated for 1 hr in presence of 1000 uM ATP
Target sequence in this assay (P15056 2-766 V600E limits assumed): as the sequence (P15056 2-766 V600E limits assumed) above

[23] = molecular target: T1, Serine/threonine-protein kinase B-raf; test: Inhibition of BRAF V600E mutant (unknown origin) compound preincubated for 1 hr in presence of 5 uM ATP
Target sequence in this assay (P15056 2-766 V600E limits assumed): as above

[24] = molecular target: T2, RAF proto-oncogene serine/threonine-protein kinase; test: Inhibition of CRAF (unknown origin) in presence of 1000 uM ATP by ELISA
[25] = molecular target: T1, Serine/threonine-protein kinase B-raf; test: Inhibition of BRAF V600E mutant (unknown origin) in presence of 1000 uM ATP by ELISA
Target sequence in this assay (P15056 2-766 V600E limits assumed): as above

[26] = molecular target: Serine/threonine-protein kinase B-raf (Homo sapiens, UniProt P15056); test: Binding affinity to BRAF (unknown origin) assessed as equilibrium dissociation constant by surface plasmon resonance analysis
Serine/threonine-protein kinase B-raf (Homo sapiens, UniProt P15056), sequence (P15056 whole entry): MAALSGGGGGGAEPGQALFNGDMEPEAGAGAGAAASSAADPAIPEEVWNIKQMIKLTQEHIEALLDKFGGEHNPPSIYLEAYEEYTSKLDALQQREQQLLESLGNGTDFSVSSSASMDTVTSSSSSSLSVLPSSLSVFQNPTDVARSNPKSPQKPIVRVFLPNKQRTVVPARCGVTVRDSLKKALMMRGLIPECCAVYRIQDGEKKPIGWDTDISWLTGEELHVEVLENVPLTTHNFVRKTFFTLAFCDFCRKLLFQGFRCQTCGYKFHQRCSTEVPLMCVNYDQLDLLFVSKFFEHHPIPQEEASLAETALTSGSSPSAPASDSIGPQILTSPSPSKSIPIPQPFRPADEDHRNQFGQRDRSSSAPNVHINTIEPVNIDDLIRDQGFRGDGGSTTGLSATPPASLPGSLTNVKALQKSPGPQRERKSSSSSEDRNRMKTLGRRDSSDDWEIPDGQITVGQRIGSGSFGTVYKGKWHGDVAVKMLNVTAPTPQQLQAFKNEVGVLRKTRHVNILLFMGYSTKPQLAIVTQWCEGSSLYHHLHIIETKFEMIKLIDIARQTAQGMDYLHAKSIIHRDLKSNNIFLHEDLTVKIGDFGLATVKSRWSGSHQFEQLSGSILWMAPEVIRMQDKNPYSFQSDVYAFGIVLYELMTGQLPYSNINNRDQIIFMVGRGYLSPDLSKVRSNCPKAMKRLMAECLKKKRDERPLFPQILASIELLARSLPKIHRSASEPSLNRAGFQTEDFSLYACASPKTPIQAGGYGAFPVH

[27] = molecular target: Dual specificity mitogen-activated protein kinase kinase 1 (Homo sapiens, UniProt Q02750); test: Inhibition of N-terminal GST-tagged MEK1 (unknown origin) expressed in 293 cells using GST-ERK1(K71A) as substrate after 20 mins
[28] = molecular target: Mitogen-activated protein kinase 14 (Homo sapiens, UniProt Q16539); test: Inhibition of C-terminal FLAG-tagged p38 alpha (unknown origin) expressed in baculovirus system using MBP as substrate after 60 mins
[29] = molecular target: Serine/threonine-protein kinase Chk1 (Homo sapiens, UniProt O14757); test: Inhibition of CHK1 (unknown origin) using alpha-casein as substrate after 20 mins
[30] = molecular target: Protein kinase C theta type (Homo sapiens, UniProt Q04759); test: Inhibition of C-terminal FLAG-tagged PKC-theta (unknown origin) expressed in […] using MBP as substrate after 60 mins
Protein kinase C theta type, sequence (Q04759 whole entry): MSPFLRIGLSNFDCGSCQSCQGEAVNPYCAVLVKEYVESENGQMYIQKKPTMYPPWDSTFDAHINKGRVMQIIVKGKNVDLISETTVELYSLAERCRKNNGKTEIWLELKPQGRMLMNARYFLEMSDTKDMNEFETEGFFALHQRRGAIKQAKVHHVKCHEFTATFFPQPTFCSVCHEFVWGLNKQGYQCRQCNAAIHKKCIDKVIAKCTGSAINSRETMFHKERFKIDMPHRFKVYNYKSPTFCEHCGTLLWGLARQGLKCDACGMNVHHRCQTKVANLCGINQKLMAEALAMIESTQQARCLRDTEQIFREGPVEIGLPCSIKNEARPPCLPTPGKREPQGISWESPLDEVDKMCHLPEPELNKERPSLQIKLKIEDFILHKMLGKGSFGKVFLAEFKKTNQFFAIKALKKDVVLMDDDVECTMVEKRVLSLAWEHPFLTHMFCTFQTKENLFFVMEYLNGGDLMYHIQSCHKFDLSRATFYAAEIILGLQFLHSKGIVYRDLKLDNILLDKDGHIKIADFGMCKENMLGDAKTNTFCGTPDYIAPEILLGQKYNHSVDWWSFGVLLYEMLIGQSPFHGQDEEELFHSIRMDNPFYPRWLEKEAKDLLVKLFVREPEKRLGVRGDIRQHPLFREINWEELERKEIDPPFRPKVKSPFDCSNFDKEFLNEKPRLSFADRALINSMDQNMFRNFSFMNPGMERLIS

[31] = Inhibition of PKA (unknown origin) expressed in Escherichia coli after 10 mins; set-up: species or system Homo sapiens
[32] = molecular target: Inhibitor of nuclear factor kappa-B kinase subunit beta (Homo sapiens, UniProt O14920); test: Inhibition of C-terminal FLAG-tagged IKK beta (unknown origin) expressed in baculovirus system using IkappaBalpha as substrate after 40 mins
[33] = molecular target: Insulin receptor (Homo sapiens, UniProt P06213); test: Inhibition of Insulin receptor (unknown origin) using biotinylated poly-Glu-Tyr (4:1) as substrate preincubated for 5 mins measured after 12 hrs
[34] = molecular target: Proto-oncogene tyrosine-protein kinase Src (Homo sapiens, UniProt P12931); test: Inhibition of Src receptor (unknown origin) using biotinylated poly-Glu-Tyr (4:1) as substrate preincubated for 5 mins measured after 12 hrs
Proto-oncogene tyrosine-protein kinase Src, sequence (P12931 2-536 limits assumed): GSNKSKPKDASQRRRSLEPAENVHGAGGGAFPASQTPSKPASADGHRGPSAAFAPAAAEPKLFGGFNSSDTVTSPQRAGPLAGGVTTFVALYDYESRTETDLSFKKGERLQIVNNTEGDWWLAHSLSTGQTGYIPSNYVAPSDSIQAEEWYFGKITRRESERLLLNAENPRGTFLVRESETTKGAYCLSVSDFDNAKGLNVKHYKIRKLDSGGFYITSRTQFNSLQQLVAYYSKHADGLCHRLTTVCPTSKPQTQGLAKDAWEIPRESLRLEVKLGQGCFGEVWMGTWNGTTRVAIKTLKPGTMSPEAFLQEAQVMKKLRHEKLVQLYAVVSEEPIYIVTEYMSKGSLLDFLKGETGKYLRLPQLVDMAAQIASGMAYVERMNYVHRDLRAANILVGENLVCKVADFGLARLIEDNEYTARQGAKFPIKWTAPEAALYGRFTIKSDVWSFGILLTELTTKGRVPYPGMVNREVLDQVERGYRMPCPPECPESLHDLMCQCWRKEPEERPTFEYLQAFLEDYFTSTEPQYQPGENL

[35] = molecular target: Mast/stem cell growth factor receptor Kit (Homo sapiens, UniProt P10721); test: Inhibition of c-Kit receptor (unknown origin) using biotinylated poly-Glu-Tyr (4:1) as substrate preincubated for 5 mins measured after 12 hrs
[36] = molecular target: Receptor tyrosine-protein kinase erbB-2 (Homo sapiens, UniProt P04626); test: Inhibition of N-terminal peptide (DYKDDDD)-tagged HER2 (unknown origin) expressed in baculovirus system using biotinylated poly-Glu-Tyr (4:1) as substrate preincubated for 5 mins measured after 12 hrs by scintillation counting
Receptor tyrosine-protein kinase erbB-2, sequence (P04626 whole entry): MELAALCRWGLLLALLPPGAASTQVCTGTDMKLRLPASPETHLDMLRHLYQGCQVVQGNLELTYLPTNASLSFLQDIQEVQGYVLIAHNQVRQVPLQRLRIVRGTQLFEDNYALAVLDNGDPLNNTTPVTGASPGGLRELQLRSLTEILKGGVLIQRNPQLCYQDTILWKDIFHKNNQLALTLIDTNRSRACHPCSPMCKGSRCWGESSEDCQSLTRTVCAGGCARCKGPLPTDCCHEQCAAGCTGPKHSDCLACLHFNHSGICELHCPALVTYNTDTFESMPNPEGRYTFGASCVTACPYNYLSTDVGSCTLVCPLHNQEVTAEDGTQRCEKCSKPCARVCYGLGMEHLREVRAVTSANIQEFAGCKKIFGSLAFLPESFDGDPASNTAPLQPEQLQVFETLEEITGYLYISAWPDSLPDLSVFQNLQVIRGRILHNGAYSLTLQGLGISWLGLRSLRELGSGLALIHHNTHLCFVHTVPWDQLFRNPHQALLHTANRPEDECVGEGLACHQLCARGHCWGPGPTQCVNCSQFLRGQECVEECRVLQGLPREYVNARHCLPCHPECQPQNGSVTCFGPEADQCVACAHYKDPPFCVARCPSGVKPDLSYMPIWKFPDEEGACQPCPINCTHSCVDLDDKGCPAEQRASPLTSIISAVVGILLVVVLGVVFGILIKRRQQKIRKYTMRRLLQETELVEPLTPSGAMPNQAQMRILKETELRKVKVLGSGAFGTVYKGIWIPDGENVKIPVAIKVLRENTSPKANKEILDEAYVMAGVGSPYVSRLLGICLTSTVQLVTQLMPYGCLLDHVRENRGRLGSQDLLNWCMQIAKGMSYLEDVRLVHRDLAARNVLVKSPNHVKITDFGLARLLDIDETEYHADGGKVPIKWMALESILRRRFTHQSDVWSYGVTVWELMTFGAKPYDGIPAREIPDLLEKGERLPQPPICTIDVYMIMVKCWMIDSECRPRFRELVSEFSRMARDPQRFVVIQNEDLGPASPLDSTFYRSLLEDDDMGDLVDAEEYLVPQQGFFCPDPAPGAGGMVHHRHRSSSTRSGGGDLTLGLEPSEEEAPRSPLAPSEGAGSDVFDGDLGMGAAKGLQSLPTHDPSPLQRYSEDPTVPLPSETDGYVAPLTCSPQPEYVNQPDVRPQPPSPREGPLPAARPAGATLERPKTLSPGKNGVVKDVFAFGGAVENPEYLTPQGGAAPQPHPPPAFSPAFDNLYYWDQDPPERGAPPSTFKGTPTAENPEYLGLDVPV

[37] = molecular target: Fibroblast growth factor receptor 3 (Homo sapiens, UniProt P22607); test: Inhibition of FGFR3 (unknown origin) using biotinylated poly-Glu-Tyr (4:1) as substrate preincubated for 5 mins measured after 12 hrs
[38] = molecular target: T2, RAF proto-oncogene serine/threonine-protein kinase; test: Inhibition of N-terminal FLAG-tagged wild type C-RAF (unknown origin) expressed in baculovirus system using GST-MEK1(K96R) as substrate after 20 mins
[39] = molecular target: T1, Serine/threonine-protein kinase B-raf
Target sequence in this assay (P15056 whole entry V600E): as the sequence (P15056 whole entry) above, with V600E counted along it

[40] = molecular target: T2, RAF proto-oncogene serine/threonine-protein kinase
Description: Binding affinity to CRAF (unknown origin) assessed as dissociation half life by surface plasmon resonance analysis

N#Cc1c(Oc2ccc(F)c(NC(=O)Cc3cccc(C(F)(F)F)c3)c2)ccc2nc(NC(=O)C3CC3)sc12
IC50 [1]: 75 nM
Activity [2]: 28.4 g
T/C [3]: 26%
Activity [4]: 18.6 g
Activity [5]: 11.2 g
T/C [6]: -12.1%
T/C [7]: 103%
bioavailability [8]: 108%
bioavailability [9]: 51.7%
AUC(0-t) at 24 h [10]: 15500 ng·h/mL
AUC(0-t) at 24 h [11]: 32500 ng·h/mL
MRT [12]: 2.23 h
MRT [13]: 6.27 h
solubility [14]: 740 µg/mL (≈ 1330 µM)
solubility [15]: < 0.02 µg/mL
GI50 [16]: 66 nM
IC50 [17]: 50 nM
IC50 [18]: 49 nM
IC50 [19]: 16 nM
IC50 [20]: 12 nM
IC50 [21]: 5 nM
IC50 [22]: 3.3 nM
IC50 [23]: 2.2 nM
IC50 [24]: 62 nM
IC50 [25]: 58 nM
Kd [26]: 1.6 nM
IC50 [27]: 3.7 µM
IC50 [28]: 600 nM
IC50 [29]: 1400 nM
IC50 [30]: > 10 µM
IC50 [31]: > 10 µM
IC50 [32]: 3.7 µM
IC50 [33]: > 10 µM
IC50 [34]: > 10 µM
IC50 [35]: > 10 µM
IC50 [36]: > 10 µM
IC50 [37]: 280 nM
IC50 [38]: 1.4 nM
IC50 [39]: 15 nM
T1/2 [40]: 2.15 h
